Assay results as given in US20220409727A1, “Metal Complexes Bearing Bisstyryl-Bipyridine Ligand and Their Use as Photosensitizer Agent in One and Two-Photon Photodynamic Therapy” (Paris Sciences et Lettres, priority 2019, published 2022).
Read-outs that look alike come from different tables or passages of the source.

Legend:
[1] = system: human cervical carcinoma (HeLa) cells; test: (Photo-)cytotoxicity on 2D cell monolayers, resazurin assay, HeLa; assay type: cell-based; settings: for PI (480 nm): dark vs 480 nm (10 min, 3.1 J/cm^2)
Excerpt: Before an experiment, the cells were passaged three times.

[2] = system: non-cancerous retinal pigment epithelium (RPE-1) cells; test: (Photo-)cytotoxicity on 2D cell monolayers, resazurin assay, RPE-1; settings: for PI (480 nm): RPE-1, dark vs 480 nm (10 min, 3.1 J/cm^2);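 as to all read-outs here: cells exposed to compound 4 h, medium exchanged, then irradiated or kept dark, 44 h further growth, viability by resorufin fluorescence (ex 540 nm, em 590 nm)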
[3] = system: HeLa MCTS; test: (Photo-)cytotoxicity on 3D multicellular tumor spheroids (ATP, CellTiter-Glo 3D); assay type: cell-based, human; settings: for IC50: Homo sapiens
Experimental: autoclave. The hot emulsion was transferred into wells (50 μL per well) of a 96 cell culture well plate. The plates were exposed for 3 h to UV irradiation to ensure the sterility and allow the agarose solution to cool down. After this time, the agarose was overlayed with a HeLa cell suspension at a density of 3000 cells per well in 150 μL of media. The MCTS were cultivated and maintained at 37° C. in a cell culture incubator at 37° C. with 5% CO2 atmosphere. The culture media was replaced every two days. Within two-three days MCTs were formed from the cell suspension. The formation as well as integrity, diameter and volume of the MCTs was monitored by an Axio Observer Z1 (Carl Zeiss) phase contrast microscope. The volume was calculated using the following formula: V=4/3πr^3. The luminescence images along the z-axis were captured by a one-(λex=458 nm, λem=600-750 nm) or two-photon (λex=800 nm, λem=600-750 nm) excitation in the z-stack mode with a an LSM 880 (Carl Zeiss) laser scanning confocal microscope equipped with Argon and a Coherent Chameleon 2-Photon laser and a GaAsP detector.
The cytotoxicity of the compounds in 3D multicellular tumor spheroids (MCTS) was assessed by measurement of the ATP concentration. MCTS were treated with increasing concentrations of the compound (2% DMSO, v %) by replacing 50% of the media with drug supplemented media and incubation for 12 h. After this time, the MCTS were divided in three identical groups. The first group was strictly kept in the dark. The second group was exposed to a one-photon irradiation (500 nm, 10 J/cm^2) using a LED and the third group was exposed to a two-photon irradiation (800 nm, 10 J/cm^2) with a section interval of 5 μm using a LSM 880 (Carl Zeiss, Germany) laser scanning confocal microscope equipped with a Coherent Chameleon 2-Photon laser. After the irradiation, all groups were incubated additional 48 h. The ATP concertation was measured using a CellTiter-Glo 3D Cell Viability kit (Promega) by measuring the generated chemiluminescence with an infinite M200 PRO (Tecan) plate reader.

[4] = system: mouse colon carcinoma (CT-26) cells
Experimental: (§1) The human glioblastoma astrocytoma (U373) cell line was cultured in MEM medium supplemented with 10% FBS, 1% NEAA (non-essential amino-acids) and 1% penicillin/streptomycin. […] The human retinal epithelial cells (RPE-1, non-cancerous cells immortalized with hTERT) were cultured in DMEM-F12 medium supplemented with 10% FBS and 1% penicillin/streptomycin. All cell lines were obtained from the American Type Culture Collection (ATCC) and cultured at 37° C. and 5% CO2. Before an experiment, the cells were passaged three times.
(§2) The cytotoxicity of the compounds was assessed by measuring cell viability using a fluorometric resazurin assay. The cultivated cells were seeded in triplicates in 96 well plates with a density of 4000 cells per well in 100 μL of media. After 24 h, the medium was removed and the cells were treated with increasing concentrations of the compound diluted in cell media achieving a total volume of 200 μL. The cells were incubated with the compound for 4 h. After this time, the media was removed and replaced with 200 μL of fresh medium. For the phototoxicity studies, the cells were exposed to light with an Atlas Photonics LUMOS BIO irradiator. Each well was constantly illuminated with either a 480 nm or 540 nm irradiation. During this time, the temperature was maintained constantly at 37° C. The cells were grown in the incubator for additional 44 h. For the determination of the dark cytotoxicity, the cells were not irradiated and after the medium exchange directly incubated for 44 h. After this time, the medium was replaced with fresh medium containing resazurin with a final concentration of 0.2 mg/mL. After 4 h incubation, the amount of the fluorescent product resorufin was determined upon excitation at 540 nm and measurement its emission at 590 nm using a SpectraMax M2 Microplate Reader (Molecular Devices).
(§3) The obtained data was analyzed with the GraphPad Prism software.

[5] = system: human glioblastoma astrocytoma (U373) cells
Experimental: as §1, §2, §3

[6] = system: human glioblastoma astrocytoma (U373) cells; test: (Photo-)cytotoxicity on 2D cell monolayers, resazurin assay, U373; settings: for IC50: Homo sapiens, U373 MG
Experimental: as §1, §2, §3

[7] = system: mouse colon carcinoma (CT-26) cells; test: (Photo-)cytotoxicity on 2D cell monolayers, resazurin assay, CT-26; settings: for IC50: Mus musculus
Experimental: as §1, §2, §3

[8] = dark, 4 h incubation, compounds 1-3 as chloride salts, read-out: IC50 dark
[9] = read-out: IC50 480 nm (10 min, 3.1 J/cm^2), irradiation 480 nm (10 min, 3.1 J/cm^2), compounds 1-3 as chloride salts

| Compound | PI (480 nm) [1] | IC50 [1, 8] | IC50 [1, 9] | PI (480 nm) [2] | also measured |
| --- | --- | --- | --- | --- | --- |
| COc1cccc(/C=C/c2ccnc(-c3cc(/C=C/c4cccc(OC)c4)ccn3)c2)c1.F[P-](F)(F)(F)(F)F.F[P-](F)(F)(F)(F)F.[Ru+2].c1ccc(-c2ccccn2)nc1.c1ccc(-c2ccccn2)nc1 [Compound 12, [Ru(bpy)2((E,E′)-4,4′-Bis[m-methoxystyryl]-2,2′-bipyridine)][PF6]2] | >167 | > 100000 nM | 600 ± 300 nM | >63 | – |
| COc1ccccc1C=Cc1ccnc(-c2cc(C=Cc3ccccc3OC)ccn2)c1.F[P-](F)(F)(F)(F)F.F[P-](F)(F)(F)(F)F.[Ru+2].c1ccc(-c2ccccn2)nc1.c1ccc(-c2ccccn2)nc1 [Compound 13, [Ru(bpy)2((E,E′)-4,4′-Bis[o-methoxystyryl]-2,2′-bipyridine)][PF6]2] | >124 | 62000 ± 10000 nM | 500 ± 100 nM | >66 | – |
| F[P-](F)(F)(F)(F)F.F[P-](F)(F)(F)(F)F.Fc1ccc(C=Cc2ccnc(-c3cc(C=Cc4ccc(F)cc4)ccn3)c2)cc1.[Ru+2].c1ccc(-c2ccccn2)nc1.c1ccc(-c2ccccn2)nc1 [Compound 14, [Ru(bpy)2((E,E′)-4,4′-Bis[p-fluorostyryl]-2,2′-bipyridine)][PF6]2] | >125 | > 100000 nM | 800 ± 100 nM | >68 | – |
| F[P-](F)(F)(F)(F)F.F[P-](F)(F)(F)(F)F.Oc1ccc(/C=C/c2ccnc(-c3cc(/C=C/c4ccc(O)cc4)ccn3)c2)cc1.[Ru+2].c1ccc(-c2ccccn2)nc1.c1ccc(-c2ccccn2)nc1 [Compound 15, [Ru(bpy)2((E,E′)-4,4′-Bis[p-hydroxystyryl]-2,2′-bipyridine)][PF6]2] | >100 | > 100000 nM | 1000 ± 300 nM | >9 | – |
| COc1ccc(/C=C/c2ccnc(-c3cc(/C=C/c4ccc(OC)cc4)ccn3)c2)cc1.F[P-](F)(F)(F)(F)F.F[P-](F)(F)(F)(F)F.[Os+2].c1ccc(-c2ccccn2)nc1.c1ccc(-c2ccccn2)nc1 [Compound 16, [Os(bpy)2((E,E′)-4,4′-Bis[p-methoxystyryl]-2,2′-bipyridine)][PF6]2] | >4 | > 100000 nM | 27000 ± 6000 nM | >3 | – |
| COc1ccc(/C(C)=C/c2ccnc(-c3cc(/C=C(\C)c4ccc(OC)cc4)ccn3)c2)cc1.F[P-](F)(F)(F)(F)F.F[P-](F)(F)(F)(F)F.[Ru+2].c1ccc(-c2ccccn2)nc1.c1ccc(-c2ccccn2)nc1 [Compound 18] | >6 | > 100000 nM | 16700 ± 700 nM | >3 | – |
| COc1ccc(/C=C/c2ccnc(-c3cc(/C=C/c4ccc(OC)cc4)ccn3)c2)cc1.F[P-](F)(F)(F)(F)F.F[P-](F)(F)(F)(F)F.[Ru+2].c1cnc(-c2cnccn2)cn1.c1cnc(-c2cnccn2)cn1 [Compound 19, [Ru(bpz)2((E,E′)-4,4′-Bis[p-methoxystyryl]-2,2′-bipyridine)][PF6]2] | >2 | > 100000 nM | 59000 ± 8000 nM | – | – |
| C1=Cc2nc1c(-c1ccccc1)c1ccc([nH]1)c(-c1ccccc1)c1nc(c(-c3ccccc3)c3ccc([nH]3)c2-c2ccccc2)C=C1 [Compound H2TPP, tetraphenylporphyrin, reference compound] | – | – | – | – | IC50 ([3]; dark, 12 h incubation, read-out: IC50 dark): > 100000 nM; IC50 ([3]; light or radiation study, 1-Photon irradiation (500 nm, 10 J/cm^2), read-out: IC50 1-Photon irradiation (500 nm, 10 J/cm^2)): > 100000 nM; IC50 ([3]; light or radiation study, 2-Photon irradiation (800 nm, 10 J/cm^2, section interval of 5 μm), read-out: IC50 2-Photon irradiation (800 nm, 10 J/cm^2)): > 100000 nM; PI (2-Photon) ([3]; dark vs 2-Photon irradiation (800 nm, 10 J/cm^2)): >100 |
| C=CC1=C(C)c2cc3[nH]c(cc4nc(cc5[nH]c(cc1n2)c(C)c5CCC(=O)O)C(CCC(=O)O)=C4C)c(C)c3C=C [PpIX, Protoporphyrin IX, reference compound] | >40.0 | – | – | >26.3 | IC50 ([1]; Homo sapiens, dark, 4 h incubation, compounds 1-3 as chloride salts, read-out: IC50 dark): > 100000 nM; IC50 ([1]; Homo sapiens, light or radiation study, 10 min, read-out: IC50 480 nm (10 min), irradiation 480 nm (10 min, 3.1 J/cm^2), compounds 1-3 as chloride salts): 2500 ± 100 nM; IC50 ([1]; Homo sapiens, light or radiation study, 40 min, read-out: IC50 540 nm (40 min), irradiation 540 nm (40 min, 9.5 J/cm^2), compounds 1-3 as chloride salts): 2100 ± 300 nM; PI (540 nm) ([1]; dark vs 540 nm (40 min, 9.5 J/cm^2)): >47.6; IC50 [4]: 400 ± 200 nM; IC50 [5]: 1200 ± 300 nM; IC50 ([6]; 4 h, read-out: IC50 dark): 10100 ± 700 nM; IC50 ([6]; light or radiation study, 10 min, read-out: IC50 480 nm (10 min, 3.1 J/cm^2)): 1300 ± 200 nM; PI (480 nm) ([6]; U373, dark vs 480 nm (10 min, 3.1 J/cm^2)): 7.8; PI (540 nm) ([6]; U373, dark vs 540 nm (40 min, 9.5 J/cm^2)): 8.4; PI (540 nm) ([2]; RPE-1, dark vs 540 nm (40 min, 9.5 J/cm^2)): >30.3; PI (480 nm) ([7]; CT-26, dark vs 480 nm (10 min, 3.1 J/cm^2)): 7.0; PI (540 nm) ([7]; CT-26, dark vs 540 nm (40 min, 9.5 J/cm^2)): 5.6; IC50 ([7]; CT26, 4 h, read-out: IC50 dark): 2800 ± 500 nM; IC50 ([7]; CT26, light or radiation study, 40 min, read-out: IC50 540 nm (40 min, 9.5 J/cm^2)): 500 ± 200 nM |
| [Ru(bpy)2((E,E′)-4,4′-Bis[p-aminostyryl]-2,2′-bipyridine)][PF6]2 [Compound 17] | >71 | > 100000 nM | 1400 ± 100 nM | >13 | – |
